According to US20100285963A1, “SUBSTITUTED FLUOROALKOXYPHENYLSULFONYLUREAS” (priority 2001, published 2010):
Counter-ions that a name gives are not always drawn.

Legend:
[1] = tested on: apple mildew pathogen Podosphaera leucotricha; assay: Podosphaera test (apple)/protective; assay type: in vivo; details: protective; for % efficacy: apple, application rate 100 g/ha, 10 days after inoculation; for efficacy against mildew of apples (Podosphaera leucotricha): application rate of 100 g/ha, evaluation 10 days after the inoculation
Protocol: Solvent: 49 parts by weight of acetone
(§1) Emulsifier: 1 part by weight of alkylaryl polyglycol ether
To produce a suitable preparation of active compound, 1 part by weight of active compound is mixed with the stated amounts of solvent and emulsifier, and the concentrate is diluted with water to the desired concentration.
To test for protective activity, young plants are sprayed with the preparation of active compound at the stated application rate. After the spray coating has dried on, the plants are inoculated with an aqueous spore suspension of the apple mildew pathogen Podosphaera leucotricha. The plants are then placed in a greenhouse at about 23° C. and a relative atmospheric humidity of about 70%.
Evaluation is carried out 10 days after the inoculation. 0% means an efficacy which corresponds to that of the control, whereas an efficacy of 100% means that no infection is observed.

weeds [2] = assay: Post-emergence test (greenhouse), damage to weeds; assay type: in vivo; details: for activity against weeds: test plants of 5-15 cm sprayed, rated after three weeks as % damage vs untreated control
Protocol: (§2) Solvent: 5 parts by weight of acetone
as §1
(§3) To product a suitable preparation of active compound, 1 part by weight of active compound is mixed with the stated amount of solvent, the stated amount of emulsifier is added and the concentrate is diluted with water to the desired concentration.
(§4) Test plants of a height of 5-15 cm are sprayed with the preparation of active compound such that the particular amounts of active compound desired are applied per unit area. The concentration of the spray liquor is chosen such that the particular amounts of active compound desired are applied in 10001 of water/ha.
(§5) After three weeks, the degree of damage to the plants is rated in % damage in comparison to the development of the untreated control.
(§6) The figures denote: • 0%=no effect (like untreated control) • 100%=total destruction

[3] = tested on: crop plants, such as, for example, corn, wheat and sugar beet; assay: Post-emergence test (greenhouse), tolerance by crop plants; assay type: in vivo; details: after three weeks
Protocol: as §2, §1, §3, §4, §5, §6

weeds [4] = assay: Pre-emergence test (greenhouse), damage to weeds; assay type: in vivo; details: for activity against weeds: soil sprayed 24 hours after sowing, rated after three weeks as % damage vs untreated control
Protocol: as §2, §1
(§7) To produce a suitable preparation of active compound, 1 part by weight of active compound is mixed with the stated amount of solvent, the stated amount of emulsifier is added and the concentrate is diluted with water to the desired concentration.
(§8) Seeds of the test plants are sown in normal soil. After 24 hours, the soil is sprayed with the preparation of active compounds such that the particular amount of active compound desired is applied per unit area. The concentration of active compound in the spray liquor is chosen such that the particular amount of active compound desired is applied in 1000 liters of water per hectare.
(§9) After three weeks, the degree of damage to the plants is rated in % damage in comparison to the development of the untreated control. The figures denote: • 0%=no effect (like untreated control) • 100%=total destruction

[5] = tested on: crop plants, such as, for example, wheat and soya; assay: Pre-emergence test (greenhouse), tolerance by crop plants; assay type: in vivo; details: after three weeks
Protocol: as §2, §1, §7, §8, §9

[6] = 30 g of a.i./ha, after three weeks, Table B2
[7] = 30 g of a.i./ha, after three weeks
[8] = 125 g of a.i./ha, after three weeks
[9] = 250 g of a.i./ha, after three weeks
[10] = 15 g of a.i./ha, after three weeks
[11] = 30 g of a.i./ha, after three weeks, Table B5
[12] = 60 g of a.i./ha, after three weeks, Table A6
[13] = 8 g of a.i./ha, after three weeks, Table B3
[14] = 8 g of a.i./ha, after three weeks, Table B6
[15] = 30 g of a.i./ha, after three weeks, Table B7
[16] = 15 g of a.i./ha, after three weeks, Table A2

CCCc1cccc(OCCF)c1S(=O)(=O)NC(=O)Nc1nc(OC)cc(OC)n1 [drawing 20]
% efficacy [1]: 100%

CCCc1cccc(OCCCF)c1S(=O)(=O)NC(=O)Nc1nc(C)nc(OC)n1 [(7)]
% damage Abutilon (weeds [2]; [6]): 100%
% damage Alopecurus (weeds [2]; [6]): 90%
% damage Amaranthus (weeds [2]; [6]): 100%
% damage Datura (weeds [2]; [6]): 100%
% damage Solanum (weeds [2]; [6]): 100%
% damage Wheat ([3]; 30 g of a.i./ha, Table B2): 0%
% damage Chenopodium (weeds [4]; [7]): 90%
% damage Echinochloa (weeds [4]; [7]): 90%
% damage Galium (weeds [4]; [7]): 90%
% damage Stellaria (weeds [4]; [7]): 100%
% damage Viola (weeds [4]; [7]): 100%
% damage Wheat ([5]; 30 g of a.i./ha): 0%

CCCc1cccc(OCCCF)c1S(=O)(=O)NC(=O)Nc1nc(OC)cc(OC)n1 [(25)]
% damage Abutilon (weeds [2]; [8]): 95%
% damage Alopecurus (weeds [2]; [8]): 90%
% damage Amaranthus (weeds [2]; [8]): 100%
% damage Datura (weeds [2]; [8]): 100%
% damage Solanum (weeds [2]; [8]): 100%
% damage Abutilon (weeds [2]; [9]): 100%
% damage Alopecurus (weeds [2]; [9]): 90%
% damage Amaranthus (weeds [2]; [9]): 100%
% damage Avena fatua (weeds [2]; [9]): 90%
% damage Galium (weeds [2]; [9]): 100%
% damage Setaria (weeds [2]; [9]): 100%
% damage Sinapis (weeds [2]; [9]): 100%
% damage Wheat ([3]; 125 g of a.i./ha): 10%
% damage Chenopodium (weeds [4]; [8]): 90%
% damage Datura (weeds [4]; [8]): 90%
% damage Echinochloa (weeds [4]; [8]): 90%
% damage Stellaria (weeds [4]; [8]): 90%
% damage Viola (weeds [4]; [8]): 100%
% damage Alopecurus (weeds [4]; [9]): 95%
% damage Amaranthus (weeds [4]; [9]): 100%
% damage Avena fatua (weeds [4]; [9]): 90%
% damage Galium (weeds [4]; [9]): 95%
% damage Setaria (weeds [4]; [9]): 100%
% damage Xanthium (weeds [4]; [9]): 100%
% damage Wheat ([5]; 125 g of a.i./ha): 0%

COc1nc(C)nc(NC(=O)NS(=O)(=O)c2c(C)cccc2OCCF)n1 [Example 1, N-[2-(2-fluoroethoxy)-6-methylphenylsulfonyl]-N′-(4-methoxy-6-methyl-1,3,5-triazin-2-yl)urea]
melting point: 161 °C
activity against weeds (weeds [2]): very strong activity
activity against weeds (weeds [4]): very strong activity
efficacy against mildew of apples (Podosphaera leucotricha) [1]: 100%

CCc1cccc(OCCCF)c1S(=O)(=O)NC(=O)Nc1nc(Cl)cc(OC)n1 [(18)]
% damage Abutilon (weeds [2]; [10]): 90%
% damage Amaranthus (weeds [2]; [10]): 95%
% damage Matricaria (weeds [2]; [10]): 95%
% damage Xanthium (weeds [2]; [10]): 90%
% damage Wheat ([3]; 15 g of a.i./ha): 15%

COc1cc(OC)nc(NC(=O)NS(=O)(=O)c2c(C)cccc2OCCF)n1 [drawing 17]
% efficacy [1]: 100%

CCCc1cccc(OCCCF)c1S(=O)(=O)NC(=O)Nc1nc(OC)cc(OC)n1 [Example 25]
activity against weeds (weeds [2]): very strong activity
activity against weeds (weeds [4]): very strong activity
efficacy against mildew of apples (Podosphaera leucotricha) [1]: 100%

CCCc1cccc(OCCF)c1S(=O)(=O)NC(=O)Nc1nc(OC)cc(OC)n1 [Example 26]
activity against weeds (weeds [2]): very strong activity
activity against weeds (weeds [4]): very strong activity
efficacy against mildew of apples (Podosphaera leucotricha) [1]: 100%

COc1cc(Cl)nc(NC(=O)NS(=O)(=O)c2c(C)cccc2OCCCF)n1 [(14)]
% damage Amaranthus (weeds [2]; [11]): 100%
% damage Ipomoea (weeds [2]; [11]): 95%
% damage Matricaria (weeds [2]; [11]): 90%
% damage Sugar beet ([3]; 30 g of a.i./ha, Table B5): 0%
% damage Wheat ([3]; 30 g of a.i./ha, Table B5): 0%
% damage Abutilon (weeds [4]; [12]): 95%
% damage Alopecurus (weeds [4]; [12]): 100%
% damage Amaranthus (weeds [4]; [12]): 95%
% damage Echinochloa (weeds [4]; [12]): 100%
% damage Galium (weeds [4]; [12]): 90%
% damage Sinapis (weeds [4]; [12]): 95%

COc1cc(OC)nc(NC(=O)NS(=O)(=O)c2c(C)cccc2OCCF)n1 [Example 24]
activity against weeds (weeds [2]): very strong activity
activity against weeds (weeds [4]): very strong activity
efficacy against mildew of apples (Podosphaera leucotricha) [1]: 100%

CCCc1cccc(OCCCF)c1S(=O)(=O)NC(=O)Nc1nc(OC)cc(OC)n1 [drawing 19]
% efficacy [1]: 100%

CCc1cccc(OCCCF)c1S(=O)(=O)NC(=O)Nc1nc(C)nc(OC)n1 [(17)]
% damage Abutilon (weeds [2]; [13]): 100%
% damage Ipomoea (weeds [2]; [13]): 100%
% damage Lolium (weeds [2]; [13]): 90%
% damage Matricaria (weeds [2]; [13]): 100%
% damage Solanum (weeds [2]; [13]): 100%
% damage Stellaria (weeds [2]; [13]): 100%
% damage Wheat ([3]; 8 g of a.i./ha, Table B3): 10%
% damage Abutilon (weeds [4]; [12]): 95%
% damage Alopecurus (weeds [4]; [12]): 95%
% damage Amaranthus (weeds [4]; [12]): 95%
% damage Echinochloa (weeds [4]; [12]): 95%
% damage Galium (weeds [4]; [12]): 95%
% damage Sinapis (weeds [4]; [12]): 90%

COc1nc(C)nc(NC(=O)NS(=O)(=O)c2c(C)cccc2OCCF)n1 (as salt: sodium) [Example 2, N-[2-(2-fluoroethoxy)-6-methylphenyl-sulfonyl]-M-(4-methoxy-6-methyl-1,3,5-triazin-2-yl)urea sodium salt]
melting point: 185 °C

CCCc1cccc(OCCCF)c1S(=O)(=O)NC(=O)Nc1nc(OC)nc(OC)n1 [(8)]
% damage Datura (weeds [2]; [14]): 90%
% damage Ipomoea (weeds [2]; [14]): 100%
% damage Matricaria (weeds [2]; [14]): 95%
% damage Solanum (weeds [2]; [14]): 100%
% damage Stellaria (weeds [2]; [14]): 95%
% damage Maize ([3]; 8 g of a.i./ha, Table B6): 10%
% damage Wheat ([3]; 8 g of a.i./ha, Table B6): 0%
% damage Chenopodium (weeds [4]; [7]): 90%
% damage Galium (weeds [4]; [7]): 90%
% damage Stellaria (weeds [4]; [7]): 100%
% damage Viola (weeds [4]; [7]): 100%
% damage Wheat ([5]; 30 g of a.i./ha): 0%

COc1nc(C)nc(NC(=O)NS(=O)(=O)c2c(C)cccc2OCCF)n1 [drawing 18]
% efficacy [1]: 100%

COc1cc(OC)nc(NC(=O)NS(=O)(=O)c2c(OCCF)cccc2C(F)(F)F)n1 [(4)]
% damage Abutilon (weeds [2]; [15]): 95%
% damage Alopecurus (weeds [2]; [15]): 90%
% damage Amaranthus (weeds [2]; [15]): 100%
% damage Ipomoea (weeds [2]; [15]): 95%
% damage Matricaria (weeds [2]; [15]): 100%
% damage Viola (weeds [2]; [15]): 95%
% damage Alopecurus (weeds [4]; [16]): 80%
% damage Chenopodium (weeds [4]; [16]): 100%
% damage Matricaria (weeds [4]; [16]): 100%
% damage Sorghum (weeds [4]; [16]): 80%
% damage Viola (weeds [4]; [16]): 100%
% damage Soya ([5]; 15 g of a.i./ha): 0%
% damage Wheat ([5]; 15 g of a.i./ha): 0%
